According to patent US7205296B2, “Substituted 2H-1,3-benzoxazin-4(3H)-ones” (Portola Pharmaceuticals, Inc., priority 2004, dated 2007):

Assays:
platelet ADP receptors = biological target: T1, platelet ADP receptors (Homo sapiens, UniProt Q9H244); assay: ARB assay: inhibition of [3H]2-MeS-ADP binding to platelets; conditions: IC50 class, [3H]2-MeS-ADP binding to whole human platelets
T1 construct: endogenous in cells; host or cells: whole apyrase-washed human platelets (outdated from blood banks, or fresh)
Method: II. Inhibition of [^3H]2-MeS-ADP Binding to Platelets
Utilizing the second assay the potency of inhibition of such compounds with respect to [^3H]2-MeS-ADP binding to whole platelets is determined. [^3H]2-MeS-ADP binding experiments are routinely performed with outdated human platelets collected by standard procedures at hospital blood banks. Apyrase-washed outdated platelets are prepared as follows (all steps at room temperature, if not indicated otherwise):
Outdated platelet suspensions are diluted with 1 volume of CGS and platelets pelleted by centrifugation at 1900×g for 45 minutes. Platelet pellets are resuspended at 3-6×10^9 platelets/ml in CGS containing 1 U/ml apyrase (grade V, Sigma, St. Louis, Mo.) and incubated for 15 minutes at 37° C. After centrifugation at 730×g for 20 minutes, pellets are resuspended in Hepes-Tyrode's buffer containing 0.1% BSA (Sigma, St. Louis, Mo.) at a concentration of 6.66×10^8 platelets/ml. Binding experiments are performed after >45 minutes resting of the platelets.
Alternatively, binding experiments are performed with fresh human platelets prepared as described in I. (Inhibition of ADP-Mediated Platelet Aggregation in vitro), except that platelets are resuspended in Hepes-Tyrode's buffer containing 0.1% BSA (Sigma, St. Louis, Mo.) at a concentration of 6.66×10^8 platelets/ml. Very similar results are obtained with fresh and outdated platelets.
A platelet ADP receptor binding assay using the tritiated potent agonist ligand [^3H]2-MeS-ADP (Jantzen, H. M. et al. (1999) Thromb. Hemost. 81:111–117) has been adapted to the 96-well microtiter format. In an assay volume of 0.2 ml Hepes-Tyrode's buffer with 0.1% BSA and 0.6% DMSO, 1×10^8 apyrase-washed platelets are preincubated in 96-well flat bottom microtiter plates for 5 minutes with serial dilutions of test compounds before addition of 1 nM [^3H]2-MeS-ADP ([^3H]2-methylthioadenosine-5′-diphosphate, ammonium salt; specific activity 48–49 Ci/mmole, obtained by custom synthesis from Amersham Life Science, Inc., Arlington Heights, Ill., or NEN Life Science Products, Boston, Mass.). Total binding is determined in the absence of test compounds. Samples for nonspecific binding may contain 10^−5 M unlabelled 2-MeS-ADP (RBI, Natick, Mass.). After incubation for 15 minutes at room temperature, unbound radioligand is separated by rapid filtration and two washes with cold (4–8° C.) Binding Wash Buffer (10 mM Hepes pH 7.4, 138 mM NaCl) using a 96-well cell harvester (Minidisc 96, Skatron Instruments, Sterling, Va.) and 8×12 GF/C glassfiber filtermats (Printed Filtermat A, for 1450 Microbeta, Wallac Inc., Gaithersburg, Md.). The platelet-bound radioactivity on the filtermats is determined in a scintillation counter (Microbeta 1450, Wallac Inc., Gaithersburg, Md.). Specific binding is determined by […] binding, and specific binding in the presence of test compounds is expressed as % of specific binding in the absence of test compounds dilutions.

[1] = tested on: ADP-induced human platelet aggregation; assay: PRP assay: inhibition of ADP-mediated platelet aggregation in vitro; type: cell-based; conditions: IC50 class
Method: I. Inhibition of ADP-Mediated Platelet Aggregation in vitro
The effect of testing the compound according to the invention on ADP-induced human platelet aggregation is preferably assessed in 96-well microtiter assay (see generally the procedures in Jantzen, H. M. et al. (1999) Thromb. Hemost. 81:111–117). Human venous blood is collected from healthy, drug-free volunteers into ACD (85 mM sodium citrate, 111 mM glucose, 71.4 mM citric acid) containing PGI2 (1.25 ml ACD containing 1.6 μM PGI2/10 ml blood; PGI2 was from Sigma, St. Louis, Mo.). Platelet-rich plasma (PRP) is prepared by centrifugation at 160×g for 20 minutes at room temperature. Washed platelets are prepared by centrifuging PRP for 10 minutes at 730×g and resuspending the platelet pellet in CGS (13 mM sodium citrate, 30 mM glucose, 120 mM NaCl; 2 ml CGS/10 ml original blood volume) containing 1 U/ml apyrase (grade V, Sigma, St. Louis, Mo.). After incubation at 37° C. for 15 minutes, the platelets are collected by centrifugation at 730×g for 10 minutes and resuspended at a concentration of 3×10^8 platelets/ml in Hepes-Tyrode's buffer (10 mM Hepes, 138 mM NaCl, 5.5 mM glucose, 2.9 mM KCl, 12 mM NaHCO3, pH 7.4) containing 0.1% bovine serum albumin, 1 mM CaCl2 and 1 mM MgCl2. This platelet suspension is kept >45 minutes at 37° C. before use in aggregation assays.
Inhibition of ADP-dependent aggregation is preferably determined in 96-well flat-bottom microtiter plates using a microtiter plate shaker and plate reader similar to the procedure described by Frantantoni et al., Am. J. Clin. Pathol. 94, 613 (1990). All steps are performed at room temperature. The total reaction volume of 0.2 ml/well includes in Hepes-Tyrodes buffer/0.1% BSA: 4.5×10^7 apyrase-washed platelets, 0.5 mg/ml human fibrinogen (American Diagnostica, Inc., Greenwich, Conn.), serial dilutions of test compounds (buffer for control wells) in 0.6% DMSO. After about 5 minutes preincubation at room temperature, ADP is added to a final concentration of 2 μM which induces submaximal aggregation. Buffer is added instead of ADP to one set of control wells (ADP^− control). The OD of the samples is then determined at 490 nm using a microtiter plate reader (Softmax, Molecular Devices, Menlo Park, Calif.) resulting in the 0 minute reading. The plates are then agitated for 5 min on a microtiter plate shaker and the 5 minute reading is obtained in the plate reader. Aggregation is calculated from the decrease of OD at 490 nm at t=5 minutes compared to t=0 minutes and is expressed as % of the decrease in the ADP control samples after correcting for changes in the unaggregated control samples.

T1 sequence (Q9H244 whole entry): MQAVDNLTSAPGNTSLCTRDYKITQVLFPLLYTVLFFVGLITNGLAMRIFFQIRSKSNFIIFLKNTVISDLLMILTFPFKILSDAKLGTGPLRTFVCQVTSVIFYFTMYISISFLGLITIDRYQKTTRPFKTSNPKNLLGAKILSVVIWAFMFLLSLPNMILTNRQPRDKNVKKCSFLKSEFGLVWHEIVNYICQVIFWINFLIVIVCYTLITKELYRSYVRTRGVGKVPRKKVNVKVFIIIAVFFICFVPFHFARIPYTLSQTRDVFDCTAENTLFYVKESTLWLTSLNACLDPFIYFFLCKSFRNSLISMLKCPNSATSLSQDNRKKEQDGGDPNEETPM

| Compound | IC50 (platelet ADP receptors) [µM] | IC50 [1] [µM] |
| --- | --- | --- |
| CNc1cc2c(cc1F)C(=O)N(c1ccc(NC(=O)NS(=O)(=O)c3ccc(Cl)s3)c(OCCN(C)C)c1)CO2 [Example 34] | 0.05 to 0.5 | 10 to 30 |
| CNc1cc2c(cc1F)C(=O)N(c1ccc(C(=O)NS(=O)(=O)c3ccc(Cl)s3)c(F)c1)CO2 [Example 57, N-(5-chlorothiophen-2-ylsulfonyl)-2-fluoro-4-(6-fluoro-7-(methylamino)-4-oxo-2H-benzo[e][1,3]oxazin-3(4H)-yl) benzamide] | < 0.05 | > 30 |
| CNc1cc2c(cc1F)C(=O)N(c1ccc(NC(=O)NS(=O)(=O)c3ccc(OC)s3)nc1)CO2 [Example 44, 1-(5-(6-fluoro-7-(methylamino)-4-oxo-2H-benzo[e][1,3]oxazin-3(4H)-yl)pyridin-2-yl)-3-(5-methoxythiophen-2-ylsulfonyl)urea] | 0.05 to 0.5 | > 30 |
| CNc1cc2c(cc1F)C(=O)N(c1ccc(NC(=O)NS(=O)(=O)c3ccc(C)s3)cc1)CO2 [Example 46, 1-(4-(6-fluoro-7-(methylamino)-4-oxo-2H-benzo[e][1,3]oxazin-3(4H)-yl)-3-5-methylthiophen-2ylsulfonyl)urea] | < 0.05 | 10 to 30 |
| CNc1cc2c(cc1F)C(=O)N(c1ccc(NC(=O)NS(=O)(=O)c3ccc(Cl)s3)c(C(=O)N(C)C)c1)CO2 [Example 37, 1-(5-chlorothiophen-2-ylsulfonyl)-3-(2-(dimethylcarbamoyl)-4-(6-fluoro-7-(methylamino)-4-oxo-2H-benzo[e][1,3]oxazin-3(4H)-yl)phenyl)urea] | 0.05 to 0.5 | – |
| CNc1cc2c(cc1F)C(=O)N(c1ccc(NC(=O)NS(=O)(=O)c3ccc(Cl)s3)c(OCCOC)c1)CO2 [Example 28, 1-(5-chlorothiophene-2-ylsulfonyl)-3-(4-(6-fluoro-7-(methylamino)-4-oxo-2H-benzo[e][1,3]oxazin-3(4H)-yl)-2-(2-methoxyethoxy)phenyl)urea] | < 0.05 | < 10 |
| CNc1cc2c(cc1F)C(=O)N(c1ccc(NC(=O)NS(=O)(=O)c3ccc(Cl)s3)cc1OC)CO2 [Example 15, 1-(5-chlorothiophen-2-ylsulfonyl)-3-(4-(6-fluoro-7-(methylamino)-4-oxo-2H-benzo [e][1,3]oxazin-3(4H)-yl)-3-methoxyphenyl)urea] | < 0.05 | < 10 |
| CNc1cc2c(cc1F)C(=O)N(c1ccc(NC(=O)NS(=O)(=O)c3ccc(C)s3)nc1)CO2 [Example 43] | < 0.05 | < 10 |
| CNc1cc2c(cc1F)C(=O)N(c1ccc(NC(=O)NS(=O)(=O)c3ccc(Cl)s3)cc1)CO2 [Example 5, 1-(5-chlorothiophen-2-ylsulfonyl)-3-(4-(6-fluoro-7-(methylamino)-4-oxo-2H-benzo[e][1,3]oxazin-3(4H)-yl)phenyl)urea] | < 0.05 | < 10 |
| CNc1cc2c(cc1F)C(=O)N(c1ccc(NC(=O)NS(=O)(=O)c3ccc(Cl)s3)c(C(N)=O)c1)CO2 [Example 39, 1-(2-carbamoyl-4-(6-fluoro-7-(methylamino)-4-oxo-2H-benzo[e][1,3]oxazin-3(4H)-yl)phenyl)-3-(5-chlorothiophen-2-ylsulfonyl)urea] | < 0.05 | < 10 |
| CNc1cc2c(cc1F)C(=O)N(c1ccc(NC(=O)NS(=O)(=O)c3ccc(Cl)s3)cc1OCCN(C)C)CO2 [Example 25, 1-(5-chlorothiophen-2-ylsulfonyl)-3-(3-(2-(dimethylamino)ethoxy)-4-(6-fluoro-7-(methylamino)-4-oxo-2H-benzo[e][1,3]oxazin-3(4H)-yl)phenyl)urea] | > 0.5 | – |
| CCOCCOc1cc(NC(=O)NS(=O)(=O)c2ccc(Cl)s2)ccc1N1COc2cc(NC)c(F)cc2C1=O [Example 20, 1-(5-chlorothiophen-2-ylsulfonyl)-3-(3-(2-ethoxyethoxy)-4-(6-fluoro-7-(methylamino)-4-oxo-2H-benzo[e][1,3]oxazin-3(4H)-yl)phenyl)urea] | > 0.5 | – |
